# Earlier results in patent publication US20250161335A1, “Drug and Method for Nucleoside (Acid) Drug Therapy of Limiting Chronic Hepatitis B” (Shanghai Hep Pharmaceutical Co., Ltd., priority 2022, published 2025).
# Tested on: HBV
# Conditions: patients treated with nucleoside (acid) medicine
smiles,measurement,value
C[C@H](Cn1cnc2c(N)ncnc21)OCP(=O)(O)O [tenofovir],inhibition rate on viral DNA,about 70%
